Results: PubChem BioAssay AID248 (DTP/NCI, 2004)
“And” between values parts separate entries of the source, which are not always exact repeats. Equal values may be shown once. Toxic doses and inconclusive results are not listed. Rule as the data show it: active = T/C of 150% or more; inactive = T/C below 125%.

Test system: L1210 leukemia ip in BDF1 mice, survival T/C
Experiment: NCI In Vivo Anticancer Drug Screen. Data for tumor model L1210 Leukemia (intraperitoneal) in B6D2F1 (BDF1) mice
Conditions: endpoint: mean survival time, higher = longer survival
In short: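 Tumor cells were implanted, animals were treated, and survival was followed. The result divides the treated measurement by the vehicle-control measurement.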

[1] = dose: 100.0 mg/kg/injection, schedule: Q01DX001 (ip), vehicle: saline with Tween-80
[2] = dose: 200.0 mg/kg/injection, schedule: Q01DX001 (ip), vehicle: saline with Tween-80
[3] = dose: 400.0 mg/kg/injection, schedule: Q01DX001 (ip), vehicle: saline with Tween-80
[4] = dose: 100.0 mg/kg/injection, schedule: Q01DX001 (ip), vehicle: saline
[5] = dose: 200.0 mg/kg/injection, schedule: Q01DX001 (ip), vehicle: saline
[6] = dose: 400.0 mg/kg/injection, schedule: Q01DX001 (ip), vehicle: saline
[7] = dose: 100.0 mg/kg/injection, schedule: Q04DX003 (ip), vehicle: saline with Tween-80
[8] = dose: 200.0 mg/kg/injection, schedule: Q04DX003 (ip), vehicle: saline with Tween-80
[9] = dose: 400.0 mg/kg/injection, schedule: Q04DX003 (ip), vehicle: saline with Tween-80
[10] = dose: 50.0 mg/kg/injection, schedule: Q01DX009 (ip), vehicle: Klucel (hydroxypropylcellulose) (HPC)
[11] = dose: 100.0 mg/kg/injection, schedule: Q01DX009 (ip), vehicle: Klucel (hydroxypropylcellulose) (HPC)
[12] = dose: 100.0 mg/kg/injection, schedule: Q04DX003 (ip), vehicle: Klucel (hydroxypropylcellulose) (HPC)
[13] = dose: 200.0 mg/kg/injection, schedule: Q01DX009 (ip), vehicle: Klucel (hydroxypropylcellulose) (HPC)
[14] = dose: 200.0 mg/kg/injection, schedule: Q04DX003 (ip), vehicle: Klucel (hydroxypropylcellulose) (HPC)
[15] = dose: 400.0 mg/kg/injection, schedule: Q04DX003 (ip), vehicle: Klucel (hydroxypropylcellulose) (HPC)
[16] = dose: 100.0 mg/kg/injection, schedule: Q01DX009 (ip), vehicle: saline with Tween-80
[17] = dose: 200.0 mg/kg/injection, schedule: Q01DX009 (ip), vehicle: saline with Tween-80
[18] = dose: 100.0 mg/kg/injection, schedule: Q04DX003 (ip), vehicle: saline
[19] = dose: 200.0 mg/kg/injection, schedule: Q04DX003 (ip), vehicle: saline
[20] = dose: 400.0 mg/kg/injection, schedule: Q01DX009 (ip), vehicle: Klucel (hydroxypropylcellulose) (HPC)
[21] = dose: 400.0 mg/kg/injection, schedule: Q04DX003 (ip), vehicle: saline
[22] = dose: 100.0 mg/kg/injection, schedule: Q01DX009 (ip), vehicle: saline
[23] = dose: 200.0 mg/kg/injection, schedule: Q01DX009 (ip), vehicle: saline
[24] = dose: 400.0 mg/kg/injection, schedule: Q01DX009 (ip), vehicle: saline

Measured: T/C

O=C1C(Cl)=C(Cl)C(=O)c2ccccc21
inactive: dose: 0.5 mg/kg/injection, schedule: Q01DX009 (ip), vehicle: Klucel (hydroxypropylcellulose) (HPC) 108 % of control | dose: 1.0 mg/kg/injection, schedule: Q01DX009 (ip), vehicle: Klucel (hydroxypropylcellulose) (HPC) 110 % of control | dose: 1.0 mg/kg/injection, schedule: Q04DX003 (ip), vehicle: Klucel (hydroxypropylcellulose) (HPC) 105 % of control | dose: 2.0 mg/kg/injection, schedule: Q01DX009 (ip), vehicle: Klucel (hydroxypropylcellulose) (HPC) 108 % of control | dose: 2.0 mg/kg/injection, schedule: Q04DX003 (ip), vehicle: Klucel (hydroxypropylcellulose) (HPC) 108 % of control | dose: 4.0 mg/kg/injection, schedule: Q04DX003 (ip), vehicle: Klucel (hydroxypropylcellulose) (HPC) 110 % of control | dose: 5.0 mg/kg/injection, schedule: Q01DX009 (ip), vehicle: saline with Tween-80 93 % of control | dose: 10.0 mg/kg/injection, schedule: Q01DX009 (ip), vehicle: saline with Tween-80 97 % of control | dose: 20.0 mg/kg/injection, schedule: Q01DX009 (ip), vehicle: saline with Tween-80 97 % of control

CC(=O)NCCc1[nH]cnc1N=Nc1ccc(Br)cc1
inactive: [1] 96 % of control | [2] 96 % of control | [3] 94 % of control

O=C(O)CCC1NC(=O)NC1=O (stereo unspecified)
inactive: [4] 96 % of control | [5] 96 % of control | [6] 91 % of control

COC1OC(COC(=O)c2ccccc2)C(OC(=O)c2ccccc2)C1OC(=O)c1ccccc1 (stereo unspecified)
inactive: [7] 101 % of control | [8] 92 % of control | [9] 90 % of control

NC1=NC(=O)C(c2ccccc2)O1 (stereo unspecified)
inactive: dose: 25.0 mg/kg/injection, schedule: Q01DX009 (ip), vehicle: Klucel (hydroxypropylcellulose) (HPC) 88 % of control | dose: 25.0 mg/kg/injection, schedule: Q04DX003 (ip), vehicle: Klucel (hydroxypropylcellulose) (HPC) 92 % of control | [10] 94 % of control | dose: 50.0 mg/kg/injection, schedule: Q04DX003 (ip), vehicle: Klucel (hydroxypropylcellulose) (HPC) 95 % of control | [11] 91 % of control | [12] 103 % of control | [13] 102 % of control | [14] 103 % of control | [15] 89 % of control

COc1ccc(-c2cnc(=O)[nH]c2N)cc1
inactive: [12] 101 % of control | [14] 104 % of control

CCCCCCCCCCCCCCCC(=O)N(CCC#N)c1ccc(N(CCC#N)C(=O)CCCCCCCCCCCCCCC)cc1
inactive: [1] 93 % of control | [16] 86 % of control | [7] 104 % of control | [2] 98 % of control | [17] 88 % of control | [8] 94 % of control | [3] 94 % of control | dose: 400.0 mg/kg/injection, schedule: Q01DX009 (ip), vehicle: saline with Tween-80 86 % of control | [9] 93 % of control

Cn1cnc([N+](=O)[O-])c1[Se]c1ncnc2c1c(C#N)cn2C1OC(CO)C(O)C1O (stereo unspecified)
inactive: dose: 6.25 mg/kg/injection, schedule: Q01DX009 (ip), vehicle: saline 111 % of control | dose: 12.5 mg/kg/injection, schedule: Q01DX005 (ip), vehicle: saline 95 % of control | dose: 12.5 mg/kg/injection, schedule: Q01DX009 (ip), vehicle: saline 113 % of control | dose: 15.0 mg/kg/injection, schedule: Q01DX009 (ip), vehicle: saline 103 % of control | dose: 25.0 mg/kg/injection, schedule: Q01DX005 (ip), vehicle: saline 111 % of control | dose: 25.0 mg/kg/injection, schedule: Q01DX009 (ip), vehicle: saline 108 % of control and 117 % of control | dose: 42.0 mg/kg/injection, schedule: Q01DX009 (ip), vehicle: saline 110 % of control

COc1ccc(Cc2ccc(O)cc2)cc1
inactive: dose: 100.0 mg/kg/injection, schedule: Q04DX003 (ip), vehicle: other 90 % of control | dose: 200.0 mg/kg/injection, schedule: Q04DX003 (ip), vehicle: other 93 % of control | dose: 400.0 mg/kg/injection, schedule: Q04DX003 (ip), vehicle: other 98 % of control

O=C(NCSC1=NCCS1)NCSC1=NCCS1
inactive: [11] 107 % of control | [18] 97 % of control | [13] 92 % of control | [19] 114 % of control | [20] 96 % of control | [21] 97 % of control

Cc1nc(Br)c(C(O)c2ccccc2)n1C (stereo unspecified)
inactive: [11] 100 % of control and 103 % of control | dose: 100.0 mg/kg/injection, schedule: Q04DX002 (ip), vehicle: Klucel (hydroxypropylcellulose) (HPC) 101 % of control and 103 % of control | [12] 93 % of control | [13] 95 % of control and 109 % of control | dose: 200.0 mg/kg/injection, schedule: Q04DX002 (ip), vehicle: Klucel (hydroxypropylcellulose) (HPC) 101 % of control and 103 % of control | [14] 97 % of control | [20] 95 % of control and 117 % of control | dose: 400.0 mg/kg/injection, schedule: Q04DX002 (ip), vehicle: Klucel (hydroxypropylcellulose) (HPC) 98 % of control and 100 % of control | [15] 95 % of control

NS(=O)(=O)c1ccc(N=Nc2nc3[nH]c(=O)[nH]c(=O)c3[nH]2)cc1
inactive: dose: 50.0 mg/kg/injection, schedule: Q01DX009 (ip), vehicle: saline with Tween-80 97 % of control | [16] 94 % of control | [17] 94 % of control

CCOC(=O)c1c[nH]c2c(ccc3cc(OC)ccc32)c1=O
inactive: [10] 101 % of control | [11] 97 % of control | [13] 97 % of control

CCOc1ccc(-c2nnc(Nc3ccc(S(=O)(=O)N4CCCCC4)cc3)s2)cc1
inactive: [16] 87 % of control | dose: 100.0 mg/kg/injection, schedule: Q04DX002 (ip), vehicle: saline with Tween-80 96 % of control | dose: 200.0 mg/kg/injection, schedule: Q04DX002 (ip), vehicle: saline with Tween-80 93 % of control | dose: 400.0 mg/kg/injection, schedule: Q04DX002 (ip), vehicle: saline with Tween-80 90 % of control

COC(=O)CCCNC(=O)/C=C1/c2cc(OC)c(OC)cc2CCC1S(=O)(=O)OC (stereo unspecified)
inactive: [22] 100 % of control | [18] 105 % of control | [23] 110 % of control | [19] 97 % of control | [24] 88 % of control | [21] 100 % of control

CNc1ccc(C(=O)OC)cc1
inactive: [4] 100 % of control | [5] 100 % of control | [6] 103 % of control

CSc1ccc(P(=NS(=O)(=O)c2ccc(C)cc2)(c2ccc(SC)cc2)c2ccc(SC)cc2)cc1
inactive: [11] 104 % of control | [13] 98 % of control

CN(C)c1cc(F)c(C=O)cc1[N+](=O)[O-]
inactive: [22] 100 % of control | [18] 113 % of control | [23] 105 % of control | [19] 105 % of control | [24] 100 % of control | [21] 98 % of control

Cc1cc(C)nc(N)c1
inactive: dose: 12.5 mg/kg/injection, schedule: Q04DX002 (ip), vehicle: saline 105 % of control | dose: 25.0 mg/kg/injection, schedule: Q04DX002 (ip), vehicle: saline 114 % of control

c1ccc2c(c1)C[n+]1ccccc1-2
inactive: dose: 75.0 mg/kg/injection, schedule: Q01DX001 (ip), vehicle: other 102 % of control

CN=C(N)c1ccc(N=C(N)c2ccc(N=C(N)c3ccc(NC(=O)c4ccc(C(=O)Nc5ccc(C(N)=Nc6ccc(C(N)=Nc7ccc(C(N)=NC)cc7)cc6)cc5)cc4)cc3)cc2)cc1
inactive: dose: 6.25 mg/kg/injection, schedule: Q01DX Z (ip), vehicle: water 110 % of control | dose: 12.5 mg/kg/injection, schedule: Q01DX Z (ip), vehicle: water 120 % of control | dose: 50.0 mg/kg/injection, schedule: Q01DX Z (ip), vehicle: water 121 % of control
